{"source": "paper PMC6109769", "about": "“Calmodulin Enhances Cryptochrome Binding to INAD in Drosophila Photoreceptors” (Frontiers in Molecular Neuroscience, 2018)", "key": {"CaM [1]": {"molecular_target": "T1, CaM (Xenopus laevis, UniProt P0DP33)", "T1 construct": "(His)6 (N); made in house; host or cells: Escherichia coli BL21", "test": "ITC global fit of single titrations and competition experiment (Scheme 5), 5 mM CaCl2", "format": "binding", "settings": "calculated from global fit Scheme 5", "procedure": "(§1) Peptide titrations were performed at 25°C using a high-sensitivity VP-isothermal titration calorimetry (ITC) microcalorimeter (MicroCal LLC, Northampton, MA, USA). The reference cell was filled with deionized water. Protein and peptide solutions were prepared by diluting concentrated stock solutions in the reaction buffer (50 mM TrisHCl, pH 7.5, 150 mM NaCl, in the absence or in the presence of 5 mM CaCl2). Apo-protein and peptide solutions were devoid of Ca^2+ ions, as determined by inductively coupled plasma emission spectroscopy, as previously described (Merloni et al., [2014]). […]\n(§2) Integrated heat data obtained for each titration were fitted using a nonlinear least-squares minimization algorithm to a theoretical titration curve, using AFFINImeter^2, using both the independent sites and the stoichiometric equilibria approach. ΔH (reaction enthalpy change, cal mol^−1) and Ka (binding constant, M^−1) were the thermodynamic fitting parameters. […] The reaction entropy was calculated using the relationships ΔG = −RTlnKa (R = 1.9872 cal mol^−1 K^−1, T = 298 K) and ΔG = ΔH − TΔS. […] The reliability of the obtained fits was evaluated using the Goodness of Fit (GoF) parameter.\nThe reaction was monitored using ITC. […]"}, "CaM-dCRY complex": {"system": "CaM-dCRY complex", "format": "binding, Xenopus laevis", "settings": "ITC, 5 mM CaCl2; INAD peptide 800 μM over CaM 40 μM + dCRY peptide 40 μM (1:1)", "procedure": "Peptide titrations were performed at 25°C using a high-sensitivity VP-isothermal titration calorimetry (ITC) microcalorimeter (MicroCal LLC, Northampton, MA, USA). The reference cell was filled with deionized water. Protein and peptide solutions were prepared by diluting concentrated stock solutions in the reaction buffer (50 mM TrisHCl, pH 7.5, 150 mM NaCl, in the absence or in the presence of 5 mM CaCl2). Apo-protein and peptide solutions were devoid of Ca^2+ ions, as determined by inductively coupled plasma emission spectroscopy, as previously described (Merloni et al., [2014]). Each experiment started with a small injection of 1–2 μL, which was discarded from the analysis of the integrated data, in order to avoid artifacts due to the diffusion through the injection port occurring during the long equilibration period, locally affecting the protein concentration near the syringe needle tip. Care was taken to start the first addition after baseline stability had been achieved. […] To allow the system to reach equilibrium, a spacing of 300 s was applied between each ligand injection.\nThe reaction was monitored using ITC. […] A fit of the integrated heat data, however, is quite complex, as the binding curve represents the sum of the contributions of the multiple binding isotherms deriving from the different equilibria involved. […]"}, "CaM [2]": {"molecular_target": "T1, CaM", "test": "ITC titration of peptide into Ca2+-loaded CaM (5 mM CaCl2), single-curve fits", "format": "binding", "settings": "calculated, T = 298 K", "procedure": "as §1, §2"}}}
{"smiles": "CC[C@H](C)[C@H](NC(=O)[C@H](CCCCN)NC(=O)[C@H](C)NC(=O)[C@H](CCSC)NC(=O)[C@@H](NC(=O)[C@H](Cc1ccc(O)cc1)NC(=O)CNC(=O)[C@H](Cc1ccccc1)NC(C)=O)[C@@H](C)O)C(=O)N[C@@H](CC(N)=O)C(=O)N[C@@H](CCCCN)C(=O)N[C@@H](CCCNC(=N)N)C(=O)N[C@@H](Cc1ccc(O)cc1)C(=O)N[C@@H](CC(N)=O)C(=O)N[C@@H](CCSC)C(N)=O", "note": "[INAD230–243]", "values": [{"measurement": "ΔSINAD, global fit", "setting": "CaM [1]", "value": "+4.42 cal mol^−1 K^−1"}, {"measurement": "heat of reaction on titration of INAD over CaM preincubated with dCRY", "setting": "CaM-dCRY complex", "value": "absence of significant heat of reaction"}, {"measurement": "ΔS (INAD)", "setting": "CaM [2]", "value": "−11.3", "unit": "cal mol^−1 K^−1"}]}
